Marks after values point to notes of the source that are not given here.
Legend:
[1] = tested on: IRF3 signaling pathway (IRF-inducible ISG54 promotor) in THP1-Lucia ISG cells; assay: THP1-Lucia ISG reporter assay: induction of IRF3-dependent luciferase activity; type: cell-based; conditions: Homo sapiens, PMA-differentiated cells, 18 h after stimulation, read-out: THP1 ISG: fold increase of IRF3-dependent luciferase activity over background; for fold induction at 10 µM: 10 μM compound
Experimental: The compounds were evaluated in the THP1-Lucia™ ISG (interferon stimulated genes) reporter assay to determine if the compounds activate the IRF3 signaling pathway. The THP1-Lucia™ cells (InvivoGen) express the secreted luciferase (Lucia) reporter gene under the control of an IRF-inducible promotor. The reporter cell line was developed from human monocytic leukemia THP-1 cells.
(§1) The promotor was comprised of five IFN-stimulated response elements (ISRE) fused to an ISG54 minimal promotor which is unresponsive to NF-kB or AP-1 pathways. […] The IRF3-deficient THP1-Lucia™ ISG IRF3 −/− reporter cell line was generated by CRISPR technology from the parent THP1-Lucia™ ISG reporter cell line.
(§2) 5 THP1-Lucia™ ISG cells and IRF3-deficient THP1-Lucia™ ISG IRF3 −/− cells were differentiated with PMA (100 ng/ml) and stimulated with compounds at the indicated concentrations (5 to 20 μM), positive control, or not treated (background). Luciferase secretion was quantified using the QUANTI-Luc luciferase assay system (InvivoGen) 18 h after stimulation. Data are shown as fold increase luciferase activity over background in Table 7 and represent the IRF3-dependent ISG54 promotor activity by the THP1-Lucia™ ISG cells in response to compounds. […] The fold increase of compounds (10 μM, *20 μM, **5 μM) induced IRF3 dependent luciferase activity is indicated as follows: “−” indicates less than 2.4 fold increase; “+” indicates a 2.4-4.9 fold increase; “++” indicates a 5-9.9 fold increase; “+++” indicates a 10-19 fold increase; “++++” indicates a 20-39 fold increase; “+++++” indicates greater than or equal to 40 fold increase.

[2] = tested on: THP1-Lucia ISG IRF3 −/− cells; assay: IRF3-deficient THP1-Lucia ISG IRF3 −/− reporter assay (counter-screen); type: cell-based; conditions: Homo sapiens, 18 h after stimulation, read-out: THP1 ISG IRF3 −/−: fold increase of luciferase activity over background; for fold induction at 10 µM: 10 μM compound
Experimental: as §1, §2

[3] = tested on: CXCL10 secretion by CT26 cells; assay: RIG-I dependent CXCL10 secretion by CT26 colon carcinoma cells (ELISA); type: cell-based, murine; conditions: 24 h
Experimental: (§3) The CT26 murine colon carcinoma cell line (ATCC) was used to evaluate the induction of CXCL10 secretion. CXCL10 is an important chemokine in tumor immune biology that recruits tumor-specific T cells to the tumor. To confirm that compound-mediated CXCL10 production was RIG-I specific, RIG-I deficient CT2-RIG-1−/− cells were generated by Kineta using CRISPR technology.
(§4) CT26 cells were seeded at a density of 1×10^4 cells per well on a 96-well tissue culture plate in 100 μL of cell culture and cells were incubated at 37° C. and 5% CO2 for 24 hr. Next, CT26 cells were treated with compounds at the indicated concentrations. CXCL10 was quantified by ELISA from supernatants taken 24 h after compound stimulation by use of the CXCL10 DuoSet ELISA kit (Cat # DY466, R&D, Minneapolis, Minn., USA) according to the manufacturer's instructions.
(§5) CXCL10 secretion by CT26 cells in response to compounds (in an amount of 5 to 20 μM) of the present disclosure is shown in Table 8. The compound-induced CXCL10 production was RIG-I dependent, since none of the compounds mediated CXCL10 secretion in RIG-I deficient CT26 RIG-1−/− cells. The compounds (10 μM, *20 μM, **5 μM) are indicated in the table as follows: “−” indicates less than 100 pg/mL; “+” indicates 100-199 pg/mL; “++” indicates 200-399 pg/mL; “+++” indicates 400-799 pg/mL; “++++” indicates 800 to 1599 pg/mL; “+++++” indicates greater than or equal to 1600 pg/ml.

[4] = tested on: RIG-I deficient CT26 RIG-1−/− cells; assay: CXCL10 secretion in RIG-I deficient CT26 RIG-1−/− cells (ELISA); type: cell-based, murine; conditions: 24 h
Experimental: as §3, §4, §5

Compound	fold induction at 10 µM [1]	fold induction at 10 µM [2]	CXCL10 secretion by CT26 cells ([3]; 10 μM compound)	CXCL10 secretion by CT26 RIG-I −/− cells ([4]; 10 μM compound)	fold induction at 5 µM ([1]; 5 μM compound (**))	fold induction at 5 µM ([2]; 5 μM compound (**))	CXCL10 secretion by CT26 cells ([3]; 5 μM compound (**))	CXCL10 secretion by CT26 RIG-I −/− cells ([4]; 5 μM compound (**))	fold induction at 20 µM ([1]; 20 μM compound (*))	fold induction at 20 µM ([2]; 20 μM compound (*))
CN(C)S(=O)(=O)c1ccc2nc(NC(=O)c3cc4ccccc4cc3OCCN3CCOCC3)sc2c1 [Example 30, N-[6-(dimethylsulfamoyl)-1,3-benzothiazol-2-yl]-3-[2-(morpholin-4-yl)ethoxy]naphthalene-2-carboxamide]	10 to 19	< 2.4	+++ (“+++” indicates 400-799 pg/mL)	− (“−” indicates less than 100 pg/mL)						
O=C(Nc1nc2ccc(S(=O)(=O)N3CCCC3)cc2s1)c1cc2ccccc2cc1OCCCCN1CCOCC1 [Example 31, 3-[4-(morpholin-4-yl)butoxy]-N-[6-(pyrrolidine-1-sulfonyl)-1,3-benzothiazol-2-yl]naphthalene-2-carboxamide]	10 to 19	< 2.4	+++++ (“+++++” indicates greater than or equal to 1600 pg/ml)	− (“−” indicates less than 100 pg/mL)						
NS(=O)(=O)c1ccc2nc(NC(=O)c3cc4ccccc4cc3OCCCCN3CCOCC3)sc2c1 [Example 32, 3-[4-(morpholin-4-yl)butoxy]-N-(6-sulfamoyl-1,3-benzothiazol-2-yl)naphthalene-2-carboxamide]			++++ (“++++” indicates 800 to 1599 pg/mL)	− (“−” indicates less than 100 pg/mL)	5 to 9.9	< 2.4				
O=C(Nc1nc2cccc(NC(=S)Nc3ccccc3)c2s1)c1cc2ccccc2cc1OCCCCN1CCOCC1 [Example 33, 3-[4-(morpholin-4-yl)butoxy]-N-{7-[(phenylcarbamothioyl)amino]-1,3-benzothiazol-2-yl}naphthalene-2-carboxamide]	2.4 to 4.9	< 2.4					++** (“++” indicates 200-399 pg/mL)	−** (“−” indicates less than 100 pg/mL)		
O=C(Nc1nc2ccc(S(=O)(=O)N3CCC3)cc2s1)c1cc2ccccc2cc1OCCN1CCOCC1 [Example 35, N-[6-(azetidine-1-sulfonyl)-1,3-benzothiazol-2-yl]-3-[2-(morpholin-4-yl)ethoxy]naphthalene-2-carboxamide]	20 to 39	< 2.4	+ (“+” indicates 100-199 pg/mL)	− (“−” indicates less than 100 pg/mL)						
O=C(Nc1nc2ccc(S(=O)(=O)N3CCC3)cc2s1)c1cc2ccccc2cc1OCCCCN1CCOCC1 [Example 36, N-[6-(azetidine-1-sulfonyl)-1,3-benzothiazol-2-yl]-3-[4-(morpholin-4-yl)butoxy]naphthalene-2-carboxamide]	10 to 19	< 2.4	+++ (“+++” indicates 400-799 pg/mL)	− (“−” indicates less than 100 pg/mL)						
O=C(Nc1nc2ccc(S(=O)(=O)N3CCCCC3)cc2s1)c1cc2ccccc2cc1OCCN1CCOCC1 [Example 37, 3-[2-(morpholin-4-yl)ethoxy]-N-[6-(piperidine-1-sulfonyl)-1,3-benzothiazol-2-yl]naphthalene-2-carboxamide]	10 to 19	< 2.4	+++ (“+++” indicates 400-799 pg/mL)	− (“−” indicates less than 100 pg/mL)						
O=C(Nc1nc2ccc(S(=O)(=O)N3CCCCC3)cc2s1)c1cc2ccccc2cc1OCCCCN1CCOCC1 [Example 38, 3-[4-(morpholin-4-yl)butoxy]-N-[6-(piperidine-1-sulfonyl)-1,3-benzothiazol-2-yl]naphthalene-2-carboxamide]	10 to 19	< 2.4	+++ (“+++” indicates 400-799 pg/mL)	− (“−” indicates less than 100 pg/mL)						
O=C(Nc1nc2ccc(S(=O)(=O)N3CCCC3)cc2s1)c1cc2ccsc2cc1OCCN1CCOCC1 [Example 39, 6-[2-(morpholin-4-yl)ethoxy]-N-[6-(pyrrolidine-1-sulfonyl)-1,3-benzothiazol-2-yl]-1-benzothiophene-5-carboxamide]	20 to 39	< 2.4	++ (“++” indicates 200-399 pg/mL)	− (“−” indicates less than 100 pg/mL)						
O=C(Nc1nc2ccc(S(=O)(=O)N3CCCC3)cc2s1)c1cc2c(cc1OCCN1CCOCC1)OCO2 [Example 40, 6-[2-(morpholin-4-yl)ethoxy]-N-[6-(pyrrolidine-1-sulfonyl)-1,3-benzothiazol-2-yl]-2H-1,3-benzodioxole-5-carboxamide]							++** (“++” indicates 200-399 pg/mL)	−** (“−” indicates less than 100 pg/mL)	2.4 to 4.9	< 2.4
O=C(Nc1nc2ccc(S(=O)(=O)N3CCCC3)cc2s1)c1ccc(-c2ccccc2)cc1OCCCCN1CCOCC1 [Example 41, 3-[4-(morpholin-4-yl)butoxy]-N-[6-(pyrrolidine-1-sulfonyl)-1,3-benzothiazol-2-yl]-[1,1′-biphenyl]-4-carboxamide]	20 to 39	< 2.4	+++++ (“+++++” indicates greater than or equal to 1600 pg/ml)	− (“−” indicates less than 100 pg/mL)						
O=C(Nc1nc2ccc(S(=O)(=O)N3CCCC3)cc2s1)c1cc2ccsc2cc1OCCCCN1CCOCC1 [Example 42, 6-[4-(morpholin-4-yl)butoxy]-N-[6-(pyrrolidine-1-sulfonyl)-1,3-benzothiazol-2-yl]-1-benzothiophene-5-carboxamide]	5 to 9.9	< 2.4	++++ (“++++” indicates 800 to 1599 pg/mL)	− (“−” indicates less than 100 pg/mL)						
O=C(Nc1nc2ccc(S(=O)(=O)N3CCCC3)cc2s1)c1cc2c(cc1OCCCCN1CCOCC1)OCO2 [Example 43, 6-[4-(morpholin-4-yl)butoxy]-N-[6-(pyrrolidine-1-sulfonyl)-1,3-benzothiazol-2-yl]-2H-1,3-benzodioxole-5-carboxamide]	5 to 9.9	< 2.4	++++ (“++++” indicates 800 to 1599 pg/mL)	− (“−” indicates less than 100 pg/mL)						
CS(=O)(=O)c1ccc2nc(NC(=O)c3cc4ccccc4cc3OCCN3CCOCC3)sc2c1 [Example 44, N-(6-methanesulfonyl-1,3-benzothiazol-2-yl)-3-[2-(morpholin-4-yl)ethoxy]naphthalene-2-carboxamide]	< 2.4	< 2.4					++** (“++” indicates 200-399 pg/mL)	−** (“−” indicates less than 100 pg/mL)		

Source: US20200071316A1, “ACTIVATORS OF THE RETINOIC ACID INDUCIBLE GENE "RIG-I" PATHWAY AND METHODS OF USE THEREOF” (Kineta Immuno-Oncology LLC, priority 2018, published 2020)
